# Several values for one entry are separate records, joined by “and”; a condition that tells them apart may be missing. Identical values can stand only once.
# B1: claudin-2: human claudin-2 protein from E. coli cell-free synthesis, coated on the permeable support (protein, UniProt P57739 1-230, looked up)
# Claudin-2: MASLGLQLVGYILGLLGLLGTLVAMLLPSWKTSSYVGASIVTAVGFSKGLWMECATHSTGITQCDIYSTLLGLPADIQAAQAMMVTSSAISSLACIISVVGMRCTVFCQESRAKDRVAVAGGVFFILGGLLGFIPVAWNLHGILRDFYSPLVPDSMKFEIGEALYLGIISSLFSLIAGIILCFSCSSQRNRSNYYDAYQAQPLATRSSPRPGQPPKVKSEFNSYSLTGYV
# B2: claudin-3: human claudin-3 protein from E. coli cell-free synthesis, coated on the permeable support (protein, UniProt O15551 1-220, looked up)
# Claudin-3: MSMGLEITGTALAVLGWLGTIVCCALPMWRVSAFIGSNIITSQNIWEGLWMNCVVQSTGQMQCKVYDSLLALPQDLQAARALIVVAILLAAFGLLVALVGAQCTNCVQDDTAKAKITIVAGVLFLLAALLTLVPVSWSANTIIRDFYNPVVPEAQKREMGAGLYVGWAAAALQLLGGALLCCSCPPREKKYTATKVVYSAPRSTGPGASLGTGYDRKDYV
# B3: claudin-1: human claudin-1 protein from E. coli cell-free synthesis, coated on the permeable support (protein, UniProt O95832 1-211, looked up)
# Claudin-1: MANAGLQLLGFILAFLGWIGAIVSTALPQWRIYSYAGDNIVTAQAMYEGLWMSCVSQSTGQIQCKVFDSLLNLSSTLQATRALMVVGILLGVIAIFVATVGMKCMKCLEDDEVQKMRMAVIGGAIFLLAGLAILVATAWYGNRIVQEFYDPMTPVNARYEFGQALFTGWAAASLCLLGGALLCCSCPRKTTSYPTPRPYPKPAPSSGKDYV
# B4: claudin-9: human claudin-9 protein from E. coli cell-free synthesis, coated on the permeable support (protein, UniProt O95484 1-217, looked up)
# Claudin-9: MASTGLELLGMTLAVLGWLGTLVSCALPLWKVTAFIGNSIVVAQVVWEGLWMSCVVQSTGQMQCKVYDSLLALPQDLQAARALCVIALLLALLGLLVAITGAQCTTCVEDEGAKARIVLTAGVILLLAGILVLIPVCWTAHAIIQDFYNPLVAEALKRELGASLYLGWAAAALLMLGGGLLCCTCPPPQVERPRGPRLGYSIPSRSGASGLDKRDYV
# Experiments:
# CYP2C9 = molecular target: T1, CYP2C9 (Homo sapiens, UniProt P11712); assay: Metabolic assay, cocktail substrate method (diclofenac to 4’-hydroxydiclofenac); assay type: in vitro ADME; conditions: for Enzyme activity, Mean: mean of Well-1 to Well-4
# T1 construct: host or cells: PXB-cells (icHep: JFC, HUM181001B; sandwich culture: JFC)
# T1 sequence (P11712 whole entry): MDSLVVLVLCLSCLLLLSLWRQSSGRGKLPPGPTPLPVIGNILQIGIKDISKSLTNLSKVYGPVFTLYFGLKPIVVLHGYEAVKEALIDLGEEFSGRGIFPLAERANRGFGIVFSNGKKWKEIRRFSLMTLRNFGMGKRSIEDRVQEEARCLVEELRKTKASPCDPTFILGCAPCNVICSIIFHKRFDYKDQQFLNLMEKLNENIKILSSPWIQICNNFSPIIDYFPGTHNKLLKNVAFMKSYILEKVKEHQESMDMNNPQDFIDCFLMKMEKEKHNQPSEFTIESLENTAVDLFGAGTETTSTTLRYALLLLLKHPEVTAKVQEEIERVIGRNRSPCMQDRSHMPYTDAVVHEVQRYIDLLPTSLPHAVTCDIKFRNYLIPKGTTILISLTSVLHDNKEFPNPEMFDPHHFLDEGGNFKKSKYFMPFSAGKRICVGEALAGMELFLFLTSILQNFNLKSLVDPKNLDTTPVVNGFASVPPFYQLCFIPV
# Experimental: (§1) The metabolic activity of icHep and sandwich-cultured PXB-cells was measured using the cocktail substrate method of drug-metabolizing enzymes. The components of the cocktail are summarized in Supplementary Table 1. Assays were initiated by treating cells with TB containing cocktail substrates. Time point of each substrate was set when a linear increase in its metabolite production was observed. Concentrations of metabolites produced in the medium were measured by liquid chromatography-mass spectrometry (LC-MS/MS).
# CYP2C19 = molecular target: T2, CYP2C19 (Homo sapiens, UniProt P33261); assay: Metabolic assay, cocktail substrate method ((S)-mephenytoin to 4’-hydroxymephenytoin); assay type: in vitro ADME; conditions: for Enzyme activity, Mean: mean of Well-1 to Well-4
# T2 construct: host or cells: PXB-cells (icHep: JFC, HUM181001B; sandwich culture: JFC)
# T2 sequence (P33261 whole entry): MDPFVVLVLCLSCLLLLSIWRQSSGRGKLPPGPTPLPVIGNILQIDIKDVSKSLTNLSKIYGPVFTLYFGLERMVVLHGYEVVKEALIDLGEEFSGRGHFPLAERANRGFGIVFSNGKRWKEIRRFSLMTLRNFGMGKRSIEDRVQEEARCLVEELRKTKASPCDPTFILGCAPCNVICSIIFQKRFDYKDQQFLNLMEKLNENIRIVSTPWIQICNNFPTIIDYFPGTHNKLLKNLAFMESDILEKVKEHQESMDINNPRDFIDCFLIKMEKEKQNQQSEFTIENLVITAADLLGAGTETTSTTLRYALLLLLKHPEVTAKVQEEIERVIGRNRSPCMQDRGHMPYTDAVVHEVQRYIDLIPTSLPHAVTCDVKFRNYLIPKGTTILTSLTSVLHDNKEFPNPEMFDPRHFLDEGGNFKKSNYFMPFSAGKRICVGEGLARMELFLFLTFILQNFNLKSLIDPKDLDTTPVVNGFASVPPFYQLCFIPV
# Experimental: as §1
# [1] = test system: primary human hepatocytes / PXB-cells; assay: Counting hepatocyte bile canaliculi opening to the culture equipment (hemi-lumen formation rate); assay type: cell-based; conditions: for hemi-lumen formation rate: PXB-cells (donor), supports individually coated with each claudin; for Open bile canalicular formation rate (%) Mean / Open bile canalicular formation rate (%): icHep (JFC), claudin coating; for Open bile canalicular formation rate (%) Mean: mean of 3; for Open bile canalicular formation rate (%): single replicate
# Experimental: Transwell^TM permeable support used was coated with 50 μg/ml rat tail collagen I (Corning) in 0.02 N acetic acid at room temperature for 1 h. Transwell^TM was washed twice with PBS, then the in vitro-synthesised claudin-1, -2, -3, and -9 proteins were applied to Transwell^TM at a density of 750 ng/cm^2 each and incubated at room temperature for 1 h. Transwell^TM was washed twice with PBS before seeding cells. Cryopreserved human hepatocytes (Donor ID. HU1663) were purchased from Thermo Fisher Scientific and thawed using CHRM. The hepatocytes were then diluted with WEM containing CM3000. PXB-cells (Donor ID. JFC, and HUM181001B) were obtained from PhoenixBio (Hiroshima, Japan) as described previously. […] PXB-cells were resuspended in 2% DMSO-supplemented hepatocyte growth medium (d-HCGM)[27]. Cryopreserved human hepatocytes and PXB-cells were seeded at a density of 2.1 × 10^5 cells/cm^2 in the protein-coated culture equipment. After 4 h of incubation, the culture medium was replaced with fresh culture medium to remove the unattached cells. After 24 h of incubation, the cells were cultured in d-HCGM supplemented with 250 μg/ml Matrigel. The spent medium was replaced with fresh medium every 3 days. Donor information for the human hepatocytes used is listed in Supplementary Table 2.
# To count the open- and closed-type bile canaliculi, MRP2 immunostaining was performed using the Z-stack function of a confocal microscope (LSM710; Carl Zeiss, Oberkochen, Germany). Immunostaining was performed as previously described. The ratio of open-type bile canaliculi to the total number of bile canaliculi was calculated according to Eq. (1), and the value obtained was evaluated as the induction rate of open-type bile canaliculi. Here, Aopen bile canaliculi and Abile canaliculi indicate the number of open-type bile canaliculi and total number of bile canaliculi, respectively.1 Formationrate%=Aopenbilecanaliculi/Abilecanaliculi×100
# [2] = PXB-cells (JFC), incubation time 45 min, single wells
# [3] = PXB-cells (JFC), incubation time 60 min, single wells
# [4] = PXB-cells (JFC), incubation time 90 min, single wells
# [5] = icHep (HUM18100B), incubation time 15 min, single wells
# [6] = icHep (HUM18100B), incubation time 30 min, single wells
# [7] = icHep (HUM18100B), incubation time 45 min, single wells
# [8] = icHep (HUM18100B), incubation time 60 min, single wells
# [9] = icHep (HUM18100B), incubation time 90 min, single wells
# [10] = icHep (HUM18100B), rate per single well
# [11] = icHep (JFC), incubation time 15 min, single wells
# [12] = icHep (JFC), incubation time 30 min, single wells
# [13] = icHep (JFC), incubation time 45 min, single wells
# [14] = icHep (JFC), incubation time 60 min, single wells
# [15] = icHep (JFC), incubation time 90 min, single wells
molecule,measurement,setting,value
O=C(O)Cc1ccccc1Nc1c(Cl)cc(O)cc1Cl [4'-Hydroxydiclofenac],Enzyme activity,"CYP2C9; PXB-cells (JFC), incubation time 15 min, single wells",32.4909 pmol/106 cells and 28.9867 pmol/106 cells and 32.417 pmol/106 cells and 39.4949 pmol/106 cells
same,Enzyme activity,CYP2C9; [2],103.35 pmol/106 cells and 157.866 pmol/106 cells and 142.816 pmol/106 cells and 89.3242 pmol/106 cells
same,Enzyme activity,CYP2C9; [3],194.793 pmol/106 cells and 123.239 pmol/106 cells and 152.615 pmol/106 cells and 131.028 pmol/106 cells
same,Enzyme activity,CYP2C9; [4],221.365 pmol/106 cells and 186.616 pmol/106 cells and 184.241 pmol/106 cells and 181.726 pmol/106 cells
same,"Enzyme activity, Mean",CYP2C9; PXB-cells (JFC),3.17 pmol/min/106 cells
same,Enzyme activity,CYP2C9; [5],62.619 pmol/106 cells and 66.4901 pmol/106 cells and 58.8292 pmol/106 cells and 61.6593 pmol/106 cells
same,Enzyme activity,CYP2C9; [6],81.779 pmol/106 cells and 78.031 pmol/106 cells and 78.5116 pmol/106 cells and 74.8686 pmol/106 cells
same,Enzyme activity,CYP2C9; [7],182.486 pmol/106 cells and 164.871 pmol/106 cells and 179.779 pmol/106 cells and 151.258 pmol/106 cells
same,Enzyme activity,CYP2C9; [8],261.919 pmol/106 cells and 224.09 pmol/106 cells and 240.209 pmol/106 cells and 233.857 pmol/106 cells
same,Enzyme activity,CYP2C9; [9],338.304 pmol/106 cells and 344.261 pmol/106 cells and 316.721 pmol/106 cells and 314.843 pmol/106 cells
same,"Enzyme activity, Mean",CYP2C9; icHep (HUM18100B),5.39 pmol/min/106 cells
same,Enzyme activity,CYP2C9; [10],6.00 pmol/min/106 cells and 4.87 pmol/min/106 cells and 5.39 pmol/min/106 cells and 5.30 pmol/min/106 cells
same,Enzyme activity,CYP2C9; [11],37.2763 pmol/106 cells and 45.1543 pmol/106 cells and 35.8326 pmol/106 cells and 34.722 pmol/106 cells
same,Enzyme activity,CYP2C9; [12],59.5169 pmol/106 cells and 77.189 pmol/106 cells and 52.7871 pmol/106 cells and 61.7238 pmol/106 cells
same,Enzyme activity,CYP2C9; [13],104.976 pmol/106 cells and 107.851 pmol/106 cells and 132.309 pmol/106 cells and 91.4661 pmol/106 cells
same,Enzyme activity,CYP2C9; [14],189.516 pmol/106 cells and 192.792 pmol/106 cells and 199.605 pmol/106 cells and 200.079 pmol/106 cells
same,Enzyme activity,CYP2C9; [15],261.512 pmol/106 cells and 227.854 pmol/106 cells and 218.992 pmol/106 cells and 224.098 pmol/106 cells
same,"Enzyme activity, Mean",CYP2C9; icHep (JFC),4.42 pmol/min/106 cells
same,Enzyme activity,"CYP2C9; icHep (JFC), rate per single well",4.33 pmol/min/106 cells and 3.85 pmol/min/106 cells and 4.89 pmol/min/106 cells and 4.61 pmol/min/106 cells
CC[C@@]1(c2ccc(O)cc2)NC(=O)N(C)C1=O [4'-hydroxymephenytoin],Enzyme activity,"CYP2C19; PXB-cells (JFC), incubation time 30 min, single wells",56.4054 pmol/106 cells and 48.3281 pmol/106 cells and 62.3033 pmol/106 cells and 62.1838 pmol/106 cells
same,Enzyme activity,CYP2C19; [2],95.7591 pmol/106 cells and 93.7057 pmol/106 cells and 89.6102 pmol/106 cells and 94.8294 pmol/106 cells
same,Enzyme activity,CYP2C19; [3],136.786 pmol/106 cells and 120.497 pmol/106 cells and 123.843 pmol/106 cells and 115.035 pmol/106 cells
same,Enzyme activity,CYP2C19; [4],86.2332 pmol/106 cells and 112.727 pmol/106 cells and 89.0355 pmol/106 cells and 99.3009 pmol/106 cells
same,"Enzyme activity, Mean",CYP2C19; PXB-cells (JFC),2.25 pmol/min/106 cells
same,Enzyme activity,CYP2C19; [5],50.5312 pmol/106 cells and 52.3394 pmol/106 cells and 56.2209 pmol/106 cells and 49.5383 pmol/106 cells
same,Enzyme activity,CYP2C19; [6],80.4095 pmol/106 cells and 100.579 pmol/106 cells and 91.6841 pmol/106 cells and 101.877 pmol/106 cells
same,Enzyme activity,CYP2C19; [7],142.367 pmol/106 cells and 129.072 pmol/106 cells and 120.304 pmol/106 cells and 122.788 pmol/106 cells
same,Enzyme activity,CYP2C19; [8],162.513 pmol/106 cells and 158.829 pmol/106 cells and 171.479 pmol/106 cells and 144.395 pmol/106 cells
same,Enzyme activity,CYP2C19; [9],188.684 pmol/106 cells and 187.153 pmol/106 cells and 171.43 pmol/106 cells and 198.851 pmol/106 cells
same,"Enzyme activity, Mean",CYP2C19; icHep (HUM18100B),2.55 pmol/min/106 cells
same,Enzyme activity,CYP2C19; [10],3.06 pmol/min/106 cells and 2.56 pmol/min/106 cells and 2.14 pmol/min/106 cells and 2.44 pmol/min/106 cells
same,Enzyme activity,CYP2C19; [11],42.1708 pmol/106 cells and 39.5525 pmol/106 cells and 21.6896 pmol/106 cells and 37.3866 pmol/106 cells
same,Enzyme activity,CYP2C19; [12],65.4216 pmol/106 cells and 67.8652 pmol/106 cells and 74.7797 pmol/106 cells and 75.4174 pmol/106 cells
same,Enzyme activity,CYP2C19; [13],91.82 pmol/106 cells and 75.2152 pmol/106 cells and 103.29 pmol/106 cells and 100.957 pmol/106 cells
same,Enzyme activity,CYP2C19; [14],121.361 pmol/106 cells and 85.9573 pmol/106 cells and 140.345 pmol/106 cells and 108.521 pmol/106 cells
same,Enzyme activity,CYP2C19; [15],124.213 pmol/106 cells and 122.549 pmol/106 cells and 116.257 pmol/106 cells and 126.058 pmol/106 cells
same,"Enzyme activity, Mean",CYP2C19; icHep (JFC),2.38 pmol/min/106 cells
B1,hemi-lumen formation rate,[1],48.9 ± 12%
same,Open bile canalicular formation rate (%) Mean,[1],48.9%
same,Open bile canalicular formation rate (%),[1],36.6% and 60.0% and 50.0%
B2,hemi-lumen formation rate,[1],38.6 ± 8.1%
same,Open bile canalicular formation rate (%) Mean,[1],38.6%
same,Open bile canalicular formation rate (%),[1],34.6% and 33.3% and 48.0%
B3,hemi-lumen formation rate,[1],44.5 ± 4.8%
same,Open bile canalicular formation rate (%) Mean,[1],44.5%
same,Open bile canalicular formation rate (%),[1],50.0% and 41.5% and 42.0%
B4,hemi-lumen formation rate,[1],35.9 ± 6.4%
same,Open bile canalicular formation rate (%) Mean,[1],35.9%
same,Open bile canalicular formation rate (%),[1],30.3% and 42.9% and 34.5%

# Reference: publication PMC10444810, “Induction of open-form bile canaliculus formation by hepatocytes for evaluation of biliary drug excretion” (Communications Biology, 2023)
